Measured values as given in ChEMBL document CHEMBL2413041, “In search of potent and selective inhibitors of neuronal nitric oxide synthase with more simple structures” (Bioorg Med Chem, 2013).

Legend:
[1] = target: T1, Nitric oxide synthase, inducible (Mus musculus, UniProt P29477); test: Inhibition of recombinant mouse macrophage iNOS expressed in Escherichia coli using L-arginine as substrate assessed as formation of nitric oxide measured up to 60 secs by hemoglobin capture assay
T1 sequence (P29477 whole entry): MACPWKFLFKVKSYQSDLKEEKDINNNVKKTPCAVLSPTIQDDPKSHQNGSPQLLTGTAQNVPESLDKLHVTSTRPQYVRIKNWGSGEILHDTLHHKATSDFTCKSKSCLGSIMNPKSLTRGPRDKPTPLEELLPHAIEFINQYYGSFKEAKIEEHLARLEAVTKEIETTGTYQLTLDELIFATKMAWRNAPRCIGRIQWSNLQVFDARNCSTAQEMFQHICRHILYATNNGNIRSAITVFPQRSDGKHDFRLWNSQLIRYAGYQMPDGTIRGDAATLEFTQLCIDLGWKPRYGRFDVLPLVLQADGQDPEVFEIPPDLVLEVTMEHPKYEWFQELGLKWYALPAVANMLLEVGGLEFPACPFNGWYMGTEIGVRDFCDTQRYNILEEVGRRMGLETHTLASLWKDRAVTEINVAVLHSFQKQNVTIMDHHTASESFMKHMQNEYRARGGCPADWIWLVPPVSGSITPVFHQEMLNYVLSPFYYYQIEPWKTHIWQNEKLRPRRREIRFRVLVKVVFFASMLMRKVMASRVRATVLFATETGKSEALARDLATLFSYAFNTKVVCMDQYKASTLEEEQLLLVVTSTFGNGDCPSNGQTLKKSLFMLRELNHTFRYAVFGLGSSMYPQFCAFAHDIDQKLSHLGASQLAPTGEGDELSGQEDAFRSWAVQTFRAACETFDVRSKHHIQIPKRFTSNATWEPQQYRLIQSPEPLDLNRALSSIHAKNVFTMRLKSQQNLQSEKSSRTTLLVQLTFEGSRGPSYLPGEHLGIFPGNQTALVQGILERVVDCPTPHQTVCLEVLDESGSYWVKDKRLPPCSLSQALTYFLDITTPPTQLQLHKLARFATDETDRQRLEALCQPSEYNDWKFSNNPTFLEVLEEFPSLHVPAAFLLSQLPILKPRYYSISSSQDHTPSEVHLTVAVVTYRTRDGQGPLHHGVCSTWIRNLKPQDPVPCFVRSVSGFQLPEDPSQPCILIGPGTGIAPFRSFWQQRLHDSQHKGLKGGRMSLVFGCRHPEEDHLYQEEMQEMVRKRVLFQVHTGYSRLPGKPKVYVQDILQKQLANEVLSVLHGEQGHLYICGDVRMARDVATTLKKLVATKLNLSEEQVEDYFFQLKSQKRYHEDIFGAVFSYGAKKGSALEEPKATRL

[2] = Selectivity ratio of Ki for recombinant mouse macrophage iNOS to Ki for recombinant rat nNOS
Nitric oxide synthase 3 = target: T2, Nitric oxide synthase 3 (Bos taurus, UniProt P29473); test: Inhibition of recombinant bovine eNOS expressed in Escherichia coli using L-arginine as substrate assessed as formation of nitric oxide measured up to 60 secs by hemoglobin capture assay
T2 sequence (P29473 whole entry): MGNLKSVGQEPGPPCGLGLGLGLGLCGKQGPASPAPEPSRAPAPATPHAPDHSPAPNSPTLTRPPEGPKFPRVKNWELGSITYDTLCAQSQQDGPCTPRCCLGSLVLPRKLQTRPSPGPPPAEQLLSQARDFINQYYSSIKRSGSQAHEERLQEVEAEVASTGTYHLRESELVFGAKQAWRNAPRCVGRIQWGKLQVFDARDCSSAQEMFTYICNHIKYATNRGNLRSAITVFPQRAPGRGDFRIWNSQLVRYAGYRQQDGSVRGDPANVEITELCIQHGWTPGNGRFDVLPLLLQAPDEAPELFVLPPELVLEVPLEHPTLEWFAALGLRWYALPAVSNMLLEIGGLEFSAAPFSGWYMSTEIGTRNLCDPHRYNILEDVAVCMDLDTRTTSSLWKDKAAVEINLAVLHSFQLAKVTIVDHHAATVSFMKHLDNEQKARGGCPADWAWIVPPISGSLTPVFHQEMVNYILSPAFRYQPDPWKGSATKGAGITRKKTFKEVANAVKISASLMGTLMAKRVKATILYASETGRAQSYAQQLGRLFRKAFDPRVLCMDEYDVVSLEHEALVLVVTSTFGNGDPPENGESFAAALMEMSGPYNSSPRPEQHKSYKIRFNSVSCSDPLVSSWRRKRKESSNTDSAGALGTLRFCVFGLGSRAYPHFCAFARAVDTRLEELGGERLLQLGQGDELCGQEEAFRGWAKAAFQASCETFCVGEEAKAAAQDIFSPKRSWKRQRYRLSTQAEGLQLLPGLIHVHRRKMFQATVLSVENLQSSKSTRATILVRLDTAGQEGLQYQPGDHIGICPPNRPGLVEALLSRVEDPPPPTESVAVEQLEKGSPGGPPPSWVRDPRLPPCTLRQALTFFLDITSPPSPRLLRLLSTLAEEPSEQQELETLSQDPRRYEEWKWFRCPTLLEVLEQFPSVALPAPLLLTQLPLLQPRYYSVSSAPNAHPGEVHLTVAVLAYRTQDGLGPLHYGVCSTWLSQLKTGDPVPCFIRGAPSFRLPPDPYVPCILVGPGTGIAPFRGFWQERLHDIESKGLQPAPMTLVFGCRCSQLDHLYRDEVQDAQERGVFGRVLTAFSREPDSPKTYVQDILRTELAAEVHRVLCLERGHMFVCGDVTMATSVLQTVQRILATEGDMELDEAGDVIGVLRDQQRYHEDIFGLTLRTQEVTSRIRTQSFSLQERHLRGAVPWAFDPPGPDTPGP

[3] = Selectivity ratio of Ki for recombinant bovine eNOS to Ki for recombinant rat nNOS
Nitric oxide synthase 1 = Nitric oxide synthase 1 (Rattus norvegicus, UniProt P29476); test: Inhibition of recombinant rat nNOS expressed in Escherichia coli using L-arginine as substrate assessed as formation of nitric oxide measured up to 60 secs by hemoglobin capture assay
Chain of Nitric oxide synthase 1 (P29476 whole entry): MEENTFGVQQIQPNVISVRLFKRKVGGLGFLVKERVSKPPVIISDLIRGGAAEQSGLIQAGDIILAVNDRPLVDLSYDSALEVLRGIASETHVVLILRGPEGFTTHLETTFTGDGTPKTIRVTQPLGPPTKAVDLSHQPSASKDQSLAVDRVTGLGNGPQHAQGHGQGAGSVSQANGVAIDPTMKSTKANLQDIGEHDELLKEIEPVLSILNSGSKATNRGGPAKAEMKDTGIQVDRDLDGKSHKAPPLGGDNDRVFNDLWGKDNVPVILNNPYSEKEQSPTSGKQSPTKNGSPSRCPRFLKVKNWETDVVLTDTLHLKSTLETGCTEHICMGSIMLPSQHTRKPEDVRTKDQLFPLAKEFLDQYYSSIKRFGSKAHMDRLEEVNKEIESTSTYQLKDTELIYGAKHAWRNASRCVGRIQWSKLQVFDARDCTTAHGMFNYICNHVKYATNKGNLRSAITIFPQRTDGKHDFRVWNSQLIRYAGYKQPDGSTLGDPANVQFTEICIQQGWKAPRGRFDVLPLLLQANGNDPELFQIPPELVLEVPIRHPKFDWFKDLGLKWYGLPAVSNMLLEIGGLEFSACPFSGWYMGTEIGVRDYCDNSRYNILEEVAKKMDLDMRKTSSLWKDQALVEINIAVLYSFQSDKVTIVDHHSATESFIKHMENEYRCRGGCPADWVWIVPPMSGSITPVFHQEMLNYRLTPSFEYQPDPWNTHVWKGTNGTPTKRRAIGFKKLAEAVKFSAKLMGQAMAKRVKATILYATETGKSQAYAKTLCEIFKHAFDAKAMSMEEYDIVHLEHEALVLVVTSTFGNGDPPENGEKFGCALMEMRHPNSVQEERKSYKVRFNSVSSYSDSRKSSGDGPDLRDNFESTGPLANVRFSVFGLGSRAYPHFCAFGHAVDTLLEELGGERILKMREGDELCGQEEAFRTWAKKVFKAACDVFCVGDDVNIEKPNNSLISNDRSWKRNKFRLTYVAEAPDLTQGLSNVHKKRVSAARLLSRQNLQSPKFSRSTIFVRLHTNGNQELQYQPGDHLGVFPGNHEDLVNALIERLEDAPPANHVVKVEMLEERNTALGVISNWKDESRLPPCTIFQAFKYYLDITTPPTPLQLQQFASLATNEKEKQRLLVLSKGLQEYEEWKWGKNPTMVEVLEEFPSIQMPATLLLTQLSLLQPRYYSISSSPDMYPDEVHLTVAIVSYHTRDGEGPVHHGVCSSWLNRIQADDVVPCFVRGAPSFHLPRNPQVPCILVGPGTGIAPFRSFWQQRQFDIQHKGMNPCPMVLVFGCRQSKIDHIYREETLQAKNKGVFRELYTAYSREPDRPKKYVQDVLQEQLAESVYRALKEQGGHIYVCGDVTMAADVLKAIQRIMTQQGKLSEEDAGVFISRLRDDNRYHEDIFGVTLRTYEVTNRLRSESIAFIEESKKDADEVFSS

SMILES | Ki [1] [nM] | Ratio Ki [2] | Ki (Nitric oxide synthase 3) [nM] | Ratio Ki [3] | Ki (Nitric oxide synthase 1) [nM]
Cc1cc(N)nc(CCCCCCCc2cc(C)cc(N)n2)c1 | 2190 | 25 | 2150 | 25 | 86
Cc1cc(N)nc(COc2ccccc2-c2ccccc2OCc2ccncc2)c1 |  |  |  |  | 3850
Cc1cc(N)nc(CCCCCc2cc(C)cc(N)n2)c1 | 375 |  |  |  | 
Cc1cc(N)nc(COc2ccccc2-c2ccccc2OCC2CCNCC2)c1 |  |  |  |  | 4230
Cc1cc(N)nc(COc2cccc(OCCCN)c2)c1 |  | 140 |  | 298 | 
Cc1cc(N)nc(COc2cccc(NCCc3cccc(F)c3)c2)c1 |  |  |  |  | 2160
Cc1cc(N)nc(COCc2cccc(CNCCc3cccc(F)c3)n2)c1 | 8430 | 31 | 5620 | 21 | 270
Cc1cc(N)nc(CCCCCCc2cc(C)cc(N)n2)c1 | 1800 | 54 | 2840 | 86 | 33
Cc1cc(N)nc(COc2cccc(OCC3CCNCC3)c2)c1 |  | 146 |  | 239 | 
Cc1cc(N)nc(COc2cccc(OCc3ccncc3)c2)c1 |  | 44 |  | 102 | 
